Experiments:
[1] = Induction time measurement by in situ turbidimeter (antisolvent crystallization); type: physicochemical; conditions: CTAB 0.6 g kg^−1, 25 °C
Experimental: In this section, the method for the synthesis of neomycin nanoparticles is explained in detail. First, an exact amount of neomycin powder (purity ≥ 95%) was weighed using a digital analytical balance (accuracy: […]) based on the desired equilibrium concentration. The weighed neomycin was then added to 10 g of double-distilled water (25 °C). To ensure complete dissolution, the mixture was homogenized using a magnetic stirrer at controlled speeds of 300, 350, 400, and 450 rpm for 20 minutes. This range of stirring speeds was selected to investigate the effect of shear force on solution homogeneity. After confirming the homogeneity of the neomycin solution, a predetermined amount of CTAB surfactant with a concentration established from prior studies was added to the beaker. To achieve optimal mixing, the stirring system was activated at a constant speed between 300 and 450 rpm, and the mixing process continued until equilibrium was reached. The solution temperature was continuously monitored using a calibrated digital thermometer (±0.1 °C). A turbidity sensor was installed 2 cm from the crystallizer wall to measure changes in turbidity. Pure acetone (HPLC grade) was added dropwise (0.02 mL per drop) at 5-minute intervals. The first signs of physical change (e.g., localized cloudiness) were recorded as the initial saturation point. Acetone addition continued until stable turbidity (supersaturation) was achieved under isothermal conditions (25 °C). The induction time (the interval between initial saturation and supersaturation), as clearly depicted in Fig. 1, Section C (the induction time segment of steps 1 to 4), was measure using a synchronized turbidimeter and reaction timer data. To ensure reproducibility, the entire process was repeated in four independent trials under controlled conditions (constant temperature, humidity, and lighting).
Induction time represents a key parameter in crystallization processes, being predominantly influenced by three factors of supersaturation, temperature, and agitation rate.[29,32] This parameter characterizes the time interval between the onset of initial physical changes (saturated state) and the complete formation of a turbid phase (supersaturated state) within the system. Investigations indicate that both the optimal agitation speed and the application of dynamic shock have a significant influence on the system's supersaturation level.[29,33,35,36] A sudden increase in agitation rate initially induces localized supersaturation reduction through turbulence generation at the interface between unstable and metastable zones. […] CTAB modulates the process by reducing surface energy and stabilizing subcritical clusters, which shortens the nucleation time and broadened the metastable zone. Agitation dynamics initially cause a temporary decrease in localized supersaturation (dynamic shock), followed by a stabilization phase that enables controlled crystal growth.
Methodologically, induction time was measured using both visual observation and in situ turbidimetry.

[2] = Critical nucleus radius calculated from classical nucleation theory (eqn S16); type: physicochemical; conditions: CTAB 0.6 g kg^−1, 25 °C
Excerpt: This study comprehensively investigated the influence of CTAB surfactant on neomycin crystallization. […] The supersaturation (S), as the primary driving force, directly affects the induction time, critical radius, growth rate, solubility, nanoparticle size, and nucleation mechanism.[33] CTAB operates through selective adsorption on crystalline surfaces, substantially influencing the nucleation pathway.[75,76] […] Quantitative data for these parameters are presented in Table 2, with the growth rate (intensity %) and nanoparticle size data being experimentally derived from DLS analysis.
As previously explored in relation to supersaturation, growth rate, and nanoparticle size (Fig. 16), the experimental results shown in Fig. 17 further illustrate the critical radius, growth kinetics, and nanoparticle size across varying supersaturation levels.[86] Based on data obtained from DLS analysis and critical radius calculations (eqn S16), it is observed that decreasing supersaturation leads to a significant increase in crystal growth rates, resulting in the formation of larger nanoparticles.[14–16,87] […] This phenomenon follows fundamental crystallization kinetics principles where, at high supersaturation levels, the elevated concentration of solute species leads to the formation of a greater number of primary nuclei.[89] Simultaneously, the distribution of solute molecules among these numerous nuclei results in decreased growth rates for crystals, ultimately producing smaller nanoparticles with a […] size distribution.[86] The role of the CTAB stabilizer in this system is particularly crucial. Through surface adsorption mechanisms, CTAB not only prevents nanoparticle aggregation but also precisely modulates growth kinetics, enabling better control over final particle dimensions.[90] These synergistic effects contribute to the formation of colloidally stable nanoparticles with uniform size distributions. An important observation is the direct correlation between nucleation duration and critical particle size, where extended nucleation times cause the formation of smaller particles.[91] Furthermore, dynamic parameters such as agitation rate and controlled shock pulses serve as effective tools for fine-tuning nanoparticle characteristics.[92]

[3] = 300 rpm, initial neomycin 20 g kg^−1, S 1.18
[4] = 300 rpm, initial neomycin 20 g kg^−1, S 1.33
[5] = 300 rpm, initial neomycin 20 g kg^−1, S 1.45
[6] = 300 rpm, initial neomycin 20 g kg^−1, S 1.66
[7] = 350 rpm, initial neomycin 30 g kg^−1, S 1.2
[8] = 350 rpm, initial neomycin 30 g kg^−1, S 1.25
[9] = 350 rpm, initial neomycin 30 g kg^−1, S 1.28
[10] = 350 rpm, initial neomycin 30 g kg^−1, S 1.43
[11] = 350 rpm, initial neomycin 30 g kg^−1, S 1.67
[12] = 400 rpm, initial neomycin 40 g kg^−1, S 1.29
[13] = 400 rpm, initial neomycin 40 g kg^−1, S 1.379
[14] = 400 rpm, initial neomycin 40 g kg^−1, S 1.48
[15] = 400 rpm, initial neomycin 40 g kg^−1, S 1.66
[16] = 400 rpm, initial neomycin 40 g kg^−1, S 1.9
[17] = 450 rpm, initial neomycin 50 g kg^−1, S 1.351
[18] = 450 rpm, initial neomycin 50 g kg^−1, S 1.408
[19] = 450 rpm, initial neomycin 50 g kg^−1, S 1.47
[20] = 450 rpm, initial neomycin 50 g kg^−1, S 1.666
[21] = 450 rpm, initial neomycin 50 g kg^−1, S 1.785

## NC[C@@H]1O[C@H](O[C@H]2[C@@H](O)[C@H](O[C@@H]3[C@@H](O)[C@H](N)C[C@H](N)[C@H]3O[C@H]3O[C@H](CN)[C@@H](O)[C@H](O)[C@H]3N)O[C@@H]2CO)[C@H](N)[C@@H](O)[C@@H]1O.O=S(=O)(O)O [neomycin sulfate]
[1]; [3]
  Induction time: 112 s
[1]; [4]
  Induction time: 91 s
[1]; [5]
  Induction time: 86 s
[1]; [6]
  Induction time: 79 s
[1]; [7]
  Induction time: 101 s
[1]; [8]
  Induction time: 94 s
[1]; [9]
  Induction time: 89 s
[1]; [10]
  Induction time: 81 s
[1]; [11]
  Induction time: 74 s
[1]; [12]
  Induction time: 99 s
[1]; [13]
  Induction time: 96 s
[1]; [14]
  Induction time: 83 s
[1]; [15]
  Induction time: 76 s
[1]; [16]
  Induction time: 72 s
[1]; [17]
  Induction time: 90 s
[1]; [18]
  Induction time: 84 s
[1]; [19]
  Induction time: 77 s
[1]; [20]
  Induction time: 70 s
[1]; [21]
  Induction time: 64 s
[2]; [3]
  Critical radius: 1.689 nm
[2]; 300 rpm, initial neomycin 20 g kg^−1, S 1.21
  Critical radius: 1.467 nm
[2]; [4]
  Critical radius: 0.981 nm
[2]; [5]
  Critical radius: 0.753 nm
[2]; [6]
  Critical radius: 0.552 nm
[2]; [7]
  Critical radius: 1.534 nm
[2]; [8]
  Critical radius: 1.254 nm
[2]; [9]
  Critical radius: 1.133 nm
[2]; [10]
  Critical radius: 0.782 nm
[2]; [11]
  Critical radius: 0.545 nm
[2]; [12]
  Critical radius: 1.099 nm
[2]; [13]
  Critical radius: 0.957 nm
[2]; [14]
  Critical radius: 0.714 nm
[2]; [15]
  Critical radius: 0.552 nm
[2]; [16]
  Critical radius: 0.436 nm
[2]; [17]
  Critical radius: 0.932 nm
[2]; [18]
  Critical radius: 0.817 nm
[2]; [19]
  Critical radius: 0.726 nm
[2]; [20]
  Critical radius: 0.548 nm
[2]; [21]
  Critical radius: 0.483 nm
